Some test systems named below: OVCAR-3; IGROV-1; HOP-62; OVCAR-5; Malme-3M; UACC-257; MDA-N; A549; SK-MEL-28; M14; OVCAR-8; KM12; UACC-62; SK-MEL-5; T47D; BT-549; HCC 2998; HOP-92; NCI-H460; SF-268.
Holding throughout (assay): DTP human tumour cell line panel, 48 h

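In this assay, cells in 96-well plates receive the compound at five concentrations for 48 hours. Endpoints are linearly interpolated between the surrounding concentrations. GI50 = concentration required for 50% inhibition of growth.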 The source made the active and inactive calls. Cut-off read from the data, not from the text of the source: active = GI50 up to about 1.1 µM and inactive = higher. A value given as a limit tells only on which side of the number the result lay.

With `CCCCNN`, the GI50 in the assay with OVCAR-3, with IGROV-1, with HOP-62, in the assay on OVCAR-5, in the assay with Malme-3M and in the assay on UACC-257 was > 100 µM (inactive) each time. The GI50 in the assay with MDA-N, in the assay with A549, in the assay with SK-MEL-28, with M14, in the assay with OVCAR-8 and in the assay on KM12 was > 100 µM (inactive) throughout. The GI50 is > 100 µM (inactive) with UACC-62, 95.7 µM (inactive) in the assay with SK-MEL-5, > 100 µM (inactive) with T47D and > 100 µM (inactive) in the assay with BT-549.
As to `COc1cc2c(/C=C3/C(=O)Nc4ccccc43)c(Cl)n(Cc3ccc(Cl)cc3)c2cc1C`, the GI50 with OVCAR-3 is 0.207 µM (active); in the assay on IGROV-1 it was 0.538 µM (active); in the assay on HCC 2998 it was 0.134 µM (active); with HOP-62, 0.237 µM (active); with OVCAR-5, 0.656 µM (active); in the assay with HOP-92 it was 11.8 µM (inactive). For the same compound, the GI50 with Malme-3M was 0.843 µM (active); in the assay on NCI-H460, 0.359 µM (active); with UACC-257 it was 0.378 µM (active); in the assay on A549 it was 0.366 µM (active); in the assay on SK-MEL-28, 0.386 µM (active); in the assay with M14, 0.296 µM (active). For the same compound, the GI50 is 0.675 µM (active) in the assay with SF-268; 0.299 µM (active) in the assay with OVCAR-8; 0.33 µM (active) in the assay on KM12; 0.28 µM (active) with UACC-62; 0.384 µM (active) in the assay with SK-MEL-5; 0.52 µM (active) with T47D. Besides, the GI50 in the assay on BT-549 was 0.382 µM (active).
With `COc1cc(/C=C/C(=O)C2(C(=O)/C=C/c3cc(OC)c(OC)c(OC)c3)CCCCC2)cc(OC)c1OC`, the GI50 with OVCAR-3 is 23.3 µM (inactive); with IGROV-1, 27.4 µM (inactive); in the assay with HCC 2998, 58.6 µM (inactive); with HOP-62 it was 55.6 µM (inactive); in the assay with OVCAR-5 it was 94.2 µM (inactive); with HOP-92, 1.22 µM (inactive). Also, the GI50 with Malme-3M is 37.6 µM (inactive); in the assay with NCI-H460, 80.7 µM (inactive); in the assay on UACC-257 it was 76.9 µM (inactive); in the assay with A549, > 100 µM (inactive); in the assay on SK-MEL-28, 46.3 µM (inactive); with M14, 29.9 µM (inactive). The GI50 in the assay on SF-268 was 40.5 µM (inactive); in the assay with OVCAR-8, 24.1 µM (inactive); in the assay on KM12 it was 26.6 µM (inactive); in the assay on UACC-62, 26.2 µM (inactive); in the assay with SK-MEL-5 it was 34.8 µM (inactive); in the assay with T47D, 76.2 µM (inactive). The GI50 with BT-549 is 29.6 µM (inactive).
In the case of `N=C(N)NS(=O)(=O)c1ccc(NC(=O)c2c3ccccc3nc3ccccc23)cc1`, the GI50 in the assay on OVCAR-3, with IGROV-1, in the assay on HCC 2998, with HOP-62, with OVCAR-5 and with HOP-92 was > 100 µM (inactive) in each case. Also, the GI50 with Malme-3M, in the assay with NCI-H460, with UACC-257, with MDA-N, in the assay on A549 and with SK-MEL-28 was > 100 µM (inactive) in each case. Also, the GI50 in the assay with M14, in the assay with SF-268, in the assay with OVCAR-8, in the assay on KM12, in the assay on UACC-62 and in the assay with SK-MEL-5 was > 100 µM (inactive) throughout. For the same compound, the GI50 in the assay with BT-549 was > 100 µM (inactive).
Regarding `CC(C)(C)OC(=O)NC(C)(C)C(=O)NCCC(=O)O`, the GI50 in the assay with OVCAR-3, in the assay with IGROV-1, with HOP-62, in the assay with OVCAR-5, with NCI-H460 and with UACC-257 was > 100 µM (inactive) throughout. In addition, the GI50 in the assay on A549, in the assay with SK-MEL-28, in the assay with M14, in the assay on SF-268, in the assay on OVCAR-8 and in the assay on KM12 was > 100 µM (inactive) in each case. Besides, the GI50 with UACC-62, in the assay on SK-MEL-5, with T47D and with BT-549 was > 100 µM (inactive) throughout.
On to `Cc1ccccc1/N=N/c1ccc(/N=N/c2c(O)ccc3cc(S(=O)(=O)O)cc(S(=O)(=O)O)c23)c(C)c1`, for which the GI50 in the assay on OVCAR-3, in the assay with IGROV-1, with HCC 2998, in the assay on HOP-62, in the assay with OVCAR-5 and with HOP-92 was > 100 µM (inactive) each time. The GI50 in the assay with Malme-3M, in the assay on NCI-H460, in the assay with UACC-257, in the assay on A549, in the assay with SK-MEL-28 and with M14 was > 100 µM (inactive) each time. The GI50 in the assay on SF-268, in the assay with OVCAR-8, with KM12, with UACC-62, with SK-MEL-5 and in the assay with BT-549 was > 100 µM (inactive) throughout.
Consider `O=[N+]([O-])/C(C(Cl)=C(Cl)Cl)=C(\Nc1ccccc1)n1nnc2ccccc21`, for which the GI50 with OVCAR-3 is 48.1 µM (inactive); in the assay on HCC 2998, > 100 µM (inactive); in the assay with HOP-62, 30.6 µM (inactive); in the assay with OVCAR-5, 42.1 µM (inactive); with Malme-3M, 46.1 µM (inactive); in the assay with NCI-H460, 77.8 µM (inactive). Also, the GI50 was > 100 µM (inactive) in the assay on UACC-257; 54.8 µM (inactive) in the assay on MDA-N; > 100 µM (inactive) in the assay with A549; 32.7 µM (inactive) in the assay with SK-MEL-28; 65 µM (inactive) in the assay with M14; 19.8 µM (inactive) in the assay on SF-268. Also, the GI50 with OVCAR-8 is > 100 µM (inactive); in the assay with KM12 it was 20.5 µM (inactive); with UACC-62, 40 µM (inactive); in the assay on T47D, > 100 µM (inactive); in the assay with BT-549 it was 27 µM (inactive).
Take `Cc1nc2ccc(S(=O)(=O)Nc3ccccc3)cc2c(=O)n1NC(=O)CNc1ccccc1`: the GI50 in the assay on OVCAR-3 is > 100 µM (inactive); in the assay on IGROV-1, 67.3 µM (inactive); in the assay on HCC 2998, > 100 µM (inactive); in the assay with HOP-62, 73.5 µM (inactive); in the assay with OVCAR-5 it was > 100 µM (inactive); in the assay on HOP-92, > 100 µM (inactive). The GI50 in the assay on Malme-3M, in the assay on NCI-H460, in the assay on UACC-257, in the assay with MDA-N, in the assay with A549 and in the assay with SK-MEL-28 was > 100 µM (inactive) each time. Further, the GI50 with M14, with SF-268, in the assay with OVCAR-8, in the assay with KM12, with UACC-62 and in the assay with BT-549 was > 100 µM (inactive) in each case.
As to `C1=N\CCN2CCN(CC/N=C\c3ccccc3OCc3cccc(n3)COc3ccccc3/1)CC2`, the GI50 with OVCAR-3 was 1.3 µM (inactive); in the assay on IGROV-1, 11.2 µM (inactive); with HOP-62, 14.6 µM (inactive); in the assay with OVCAR-5, 9.18 µM (inactive); in the assay on HOP-92 it was 3.89 µM (inactive); in the assay with Malme-3M it was 6.12 µM (inactive). The GI50 in the assay with NCI-H460 is 38.2 µM (inactive); in the assay on UACC-257, 10.5 µM (inactive); in the assay on MDA-N, 1.11 µM (active); in the assay with A549, 44.6 µM (inactive); in the assay with SK-MEL-28 it was 13.8 µM (inactive); in the assay on M14 it was 7.74 µM (inactive). Also, the GI50 was 2.15 µM (inactive) with SF-268; 11.8 µM (inactive) with OVCAR-8; 8.83 µM (inactive) in the assay on KM12; 1.73 µM (inactive) in the assay on UACC-62; 9.75 µM (inactive) with BT-549.
Regarding `CN(C)/N=C1\C=C2CC[C@H](O[Si](C)(C)C(C)(C)C)[C@@]2(C)CC1`, the GI50 in the assay with OVCAR-3 was 14.5 µM (inactive); in the assay on IGROV-1, 21.7 µM (inactive); in the assay with HCC 2998 it was 16.9 µM (inactive); in the assay with HOP-62, 17.9 µM (inactive); with OVCAR-5 it was 16.9 µM (inactive); with HOP-92, 15.2 µM (inactive). Besides, the GI50 with Malme-3M was 15.6 µM (inactive); in the assay with NCI-H460, 17.3 µM (inactive); in the assay with UACC-257 it was 16.7 µM (inactive); in the assay with MDA-N, 19.9 µM (inactive); in the assay on A549 it was 19.5 µM (inactive); with SK-MEL-28 it was 15.9 µM (inactive). Besides, the GI50 in the assay with M14 was 18.2 µM (inactive); in the assay on SF-268, 19.7 µM (inactive); with OVCAR-8, 16.9 µM (inactive); with KM12 it was 16.4 µM (inactive); in the assay on UACC-62, 15.1 µM (inactive); with SK-MEL-5 it was 12.4 µM (inactive). Also, the GI50 in the assay with T47D was 12.2 µM (inactive).
As for `CC(=O)Oc1ccc(/C=C/C(=O)NCC(NC(=O)/C=C/c2ccc(OC(C)=O)c(OC(C)=O)c2)C(=O)O)cc1OC(C)=O` (configuration not stated), the GI50 in the assay on OVCAR-3, with IGROV-1, with HCC 2998, in the assay on HOP-62, in the assay with OVCAR-5 and in the assay on HOP-92 was > 100 µM (inactive) each time. For the same compound, the GI50 in the assay on Malme-3M, in the assay with NCI-H460, with UACC-257, in the assay with MDA-N, in the assay on A549 and with SK-MEL-28 was > 100 µM (inactive) each time. Also, the GI50 with M14, in the assay on SF-268, with OVCAR-8, in the assay on KM12, in the assay with UACC-62 and in the assay with SK-MEL-5 was > 100 µM (inactive) in each case. Further, the GI50 in the assay with BT-549 was > 100 µM (inactive).

One may read the GI50 as the concentration that inhibits growth by half.

For the origin of these results see ChEMBL document CHEMBL1201862, “PubChem BioAssay data set” (2004).
